Earlier results in patent US12075777B2, “Antimicrobial formulation” (Anitox Corporation, priority 2011, dated 2024).

Experiments:
[1] = system: Staphylococcus aureus, E. coli and Salmonella typhimurium
[2] = 0, 0.1, 0.2, 0.3 and 0.4% in water
[3] = system: E. coli
[4] = system: yeast; parameters: dose or concentration left out as unconfirmed; conditions: 10^5 CFU/bottle; equivalence: trans-2-hexenal with thermal treatment (56° C.) vs citral
[5] = system: soybean seed; conditions: 1.8 of trans-2-hexenal/mL of air
[6] = system: peaches and nectarines; conditions: at 40 μL/L
[7] = system: pears and apples; conditions: 12.5 μL/L; twenty four hours to seven days exposure
[8] = system: A. flavus, P. notatum, A. alternate, F. oxysporum, Cladosporium species, B. subtilis and A. tumerfaciens

CC/C=C/CC=O [(3E)-hexenal]
effective level in controlling bacteria [1]: 3 to 30 µg/mL

CC(=O)O [acetic acid]
effect on performance or intestinal microbial counts [2]: did not affect performance or intestinal microbial counts

CC(C)=CCCC(C)=CC=O [citral]
concentration in growth media that reduced the concentration of E. coli [3]: more than 0.01% | concentration with bactericidal effect [3]: 0.08% | concentration controlling yeast in beverages [4]: 100-120 ppm

CCC/C=C/C=O [trans-2-hexenal]
body weight and intake (4000 ppm in diet, 13 wk): reduction in body weight and intake, but it was not significant | changes in hematological parameters or organ weights (dietary levels of 0, 260, 640, 1600 or 4000 ppm fed for 13 wk): did not induce any changes | inhibition of soybean seed germination [5]: ~100% | phytotoxicity [6]: phytotoxic | effect on fruit appearance, color, firmness, soluble solids content or titrateable acidity [7]: did not affect | concentration that completely inhibited growth [8]: 8 ng/L air
